Test system: NIH3T3 viability, CellTiter-Glo ATP luminescence
Assay: NIH3T3 cell viability loss, ATP content – CellTiter-Glo luminescence, cherry-pick, set 2, cytotoxicity control for HSP40 inhibitor project, dose response (AID 624265);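 further: cells exposed to compound for 48 hours before the ATP read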

| SMILES | AC35 [µM] |
| --- | --- |
| CC1CCN(c2nc(-c3ccncc3)nc3ccccc23)CC1 | 49.6 |
| COc1cccc(/C=N/Nc2ncnc3scc(-c4ccccc4)c23)c1O | 48.4 |
| CC(=O)C1=C(c2ccc(Br)cc2)C(=O)c2ccccc2C1=O | 26.2 |
| Oc1c(C(Nc2cccc(C(F)(F)F)c2)c2ccncc2)ccc2cccnc12 (configuration not stated) | 48.9 |
| O=C1c2cc(F)ccc2-n2c1nc1ccccc1c2=O | 50 |
| CC[n+]1c(/C=C/C=C/c2ccc(N(C)C)cc2)sc2ccccc21 | 24.4 |
| O=C(Nc1nc(-c2ccccn2)cs1)c1ccc(Br)s1 | 27.1 |
| Oc1cccc2ccc(Nc3ccccn3)nc12 | 14.2 |
| Oc1ccc(/C=N/Nc2ccc(C(F)(F)F)cn2)c(O)c1 | 43.9 |
| Nc1cc2nc3ccccc3oc-2cc1=O | 28 |
| CN(Cc1ccc(Cl)s1)C(=O)CCl | 25 |
| CCCCNc1c(-c2cccc(Sc3ccc(OC)cc3)c2)nc2ccccn12 | 39.2 |
| CCCCCCCCCCOC(=O)Cn1c(COc2ccccc2OC)[n+](C)c2ccccc21 | 26.7 |
| O=CC1=C(c2ccccc2)Oc2ccccc2O1 | 47.5 |
| Cc1[nH]n(-c2ccccc2)c(=O)c1/C=N/Nc1nncc(-c2ccccc2)n1 | 19.5 |
| Cc1cccc2sc(NNC(=O)c3ccc(S(=O)(=O)N4CCCC(C)C4)cc3)nc12 (configuration not stated) | 40.5 |
| COc1ccc(O)c(C(=O)CC(=O)c2ccc(F)cc2)c1 | 52.3 |

From PubChem BioAssay AID624265 (Broad Institute, 2012)
